Results as given in patent publication US8058243B2, “Method for treating a brain cancer with ifenprodil” (HSC Research and Development Limited Partnership, priority 2006, dated 2011).
Structures can show the parent of a compound that is named as a salt. Where two headings read alike, the source gives them in different places.

Test system: murine neural precursor cells (neurosphere cultures)
Test: HTS of LOPAC library against secondary neurosphere cultures, MTT proliferation assay at 3 μM, day 7 (z score, P value)
Type: cell-based, mouse
[1] = LOPAC library screen, 3 μM, MTT, secondary neurosphere cultures, day 7
[2] = LOPAC primary screen, neurosphere MTT proliferation, 3 μM, day 7
[3] = yes/no: significantly inhibited neurosphere proliferation (P<0.01) in the primary screen
[4] = yes/no: significantly inhibited neurosphere proliferation (P<0.01) in primary screen
[5] = LOPAC library screen at 3 μM, secondary neurosphere cultures, MTT
[6] = yes/no: significantly inhibited neurosphere proliferation in primary screen
[7] = yes/no: significantly inhibited neurosphere proliferation in the primary screen
[8] = yes = significantly inhibited neurosphere proliferation (P<0.01) in the primary screen
[9] = LOPAC library screen, 3 μM, MTT, neurosphere cultures
[10] = LOPAC screen, neurosphere MTT proliferation, 3 μM, day 7

Compound: Cc1nnc(SCC2=C(C(=O)O)N3C(=O)[C@@H](NC(=O)Cn4cnnn4)[C@H]3SC2)s1 [Cefazolin sodium]
- Z Score [1]: −2.58
- Z score [2]: −2.580
- Activity [3]: yes

Compound: Oc1cc(-c2ccccc2)nc2nc(Cl)ccc12 [7-Chloro-4-hydroxy-2-phenyl-1,8-naphthyridine]
- Z Score (168 h, 3 µM): −0.401
- Z score (168 h, 3 µM): −0.401
- Activity [4]: no

Compound: Cc1nc2sccn2c(=O)c1CCN1CCC(=C(c2ccc(F)cc2)c2ccc(F)cc2)CC1 [Ritanserin]
- Z Score [5]: −0.6957
- Z score [2]: −0.696
- Activity [6]: no

Compound: NC/C=C/C(=O)O [(E)-4-amino-2-butenoic acid]
- Z Score [1]: −2.149
- Z score (primary LOPAC screen, 3 μM, MTT, neurosphere proliferation): −2.149
- Activity [7]: no

Compound: CC(O)C(C)OC(=O)[C@@H]1C[C@@H]2c3cccc4c3c(cn4C(C)C)C[C@H]2N(C)C1.O=C(O)/C=C\C(=O)O (stereo partly shown) [LY-53,857 maleate]
- Z Score: −0.3382
- Z score [2]: −0.338
- Activity [3]: no

Compound: COc1ccc(Cl)cc1C(=O)NCCc1ccc(S(=O)(=O)NC(=O)NC2CCCCC2)cc1 [Glibenclamide]
- Z Score [5]: −0.36
- Z score [2]: −0.360
- Activity [4]: no

Compound: OC1(c2ccc(Cl)cc2)CCN(Cc2c[nH]c3ccccc23)CC1 [L-741,626]
- Z Score: −1.009
- Z score [2]: −1.009
- Activity [8]: no

Compound: N[C@@H](CCC(=O)N[C@@H](CSN=O)C(=O)NCC(=O)O)C(=O)O [S-Nitrosoglutathione]
- Z Score (168 h, 3 µM): 0.6978
- Z score (168 h, 3 µM): 0.698
- Activity [8]: no

Compound: O=C(CCCN1CCC(O)(c2ccc(Cl)cc2)CC1)c1ccc(F)cc1 [Haloperidol]
- Z Score [5]: −0.7399
- Z score [2]: −0.740
- Activity [4]: no

Compound: CC[C@]1(O)C[C@H]2CN(CCc3c([nH]c4ccccc34)[C@@](C(=O)OC)(c3cc4c(cc3OC)N(C=O)[C@H]3[C@@](O)(C(=O)OC)[C@H](OC(C)=O)[C@]5(CC)C=CCN6CC[C@]43[C@@H]65)C2)C1 [Vincristine sulfate]
- Z Score [1]: −10.79
- Z score [2]: −10.792
- Activity [3]: yes

Compound: CC(=O)S[C@@H]1CC2=CC(=O)CC[C@]2(C)[C@H]2CC[C@@]3(C)[C@@H](CC[C@@]34CCC(=O)O4)[C@H]12 [Spironolactone]
- Activity: no
- Z Score [5]: −0.5258
- Z score [2]: −0.526

Compound: CNC[C@H](O)c1ccc(O)c(O)c1.O=C(O)C(O)C(O)C(=O)O [(−)-Epinephrine bitartrate]
- Z Score [5]: −0.5304
- Z score [2]: −0.530
- Activity [4]: no

Compound: O=C1CCC(N2C(=O)c3ccccc3C2=O)C(=O)N1 (stereo not shown) [(B1)-Thalidomide]
- Z Score: 0.521

Compound: COC(=O)[C@@H]1[C@H]2C[C@H]3c4[nH]c5ccccc5c4CCN3C[C@@H]2CC[C@@H]1O [Yohimbine hydrochloride]
- Z Score (168 h, 3 µM): −1.656
- Z score (168 h, 3 µM): −1.656
- Activity [7]: no

Compound: CCCCCCCCC(=O)NCc1ccc(O)c(OC)c1 [N-Vanillylnonanamide]
- Z Score [1]: −9.029
- Z score [2]: −9.029
- Activity [3]: yes

Compound: CC(C)NCC(O)c1ccc(O)c(O)c1.Cl (single isomer, unassigned; (-)) [(−)-Isoproterenol hydrochloride]
- Z Score [9]: 0.2367
- Z score [2]: 0.237
- Activity [4]: no

Compound: Cl.NCCCCC(=O)O [5-Aminovaleric acid hydrochloride]
- Z Score (168 h, 3 µM): −1.67
- Z score (168 h, 3 µM): −1.670
- Activity [6]: no

Compound: Oc1cc(O)cc(/C=C/c2ccc(O)c(O)c2)c1 [Piceatannol]
- Z Score (168 h, 3 µM): 0.5958
- Z score (168 h, 3 µM): 0.596

Compound: C[C@]12CCC(=O)C=C1CC[C@@H]1[C@@H]2[C@@H](O)C[C@@]2(C)[C@H]1CC[C@]2(O)C(=O)COC(=O)CCC(=O)[O-].[Na+] [Hydrocortisone 21-hemisuccinate sodium]
- Z Score [9]: −0.04033
- Z score [2]: −0.040
- Activity [4]: no

Compound: CNCC(O)c1ccc(O)c(O)c1.Cl (stereo not shown) [(B1)-Epinephrine hydrochloride]
- Z Score [5]: −0.3279

Compound: COc1ccc2c(c1OC)C(=O)O[C@@H]2[C@H]1c2c(cc3c(c2OC)OCO3)CCN1C.Cl [Noscapine hydrchloride]
- Z Score [1]: −2.455
- Z score [2]: −2.455
- Activity [3]: yes

Compound: Cc1nc2sccn2c(=O)c1CCN1CCC(=C(c2ccccc2)c2ccc(F)cc2)CC1 [Diacylglycerol kinase inhibitor I]
- Z Score: −1.782
- Z score [10]: −1.782
- Activity [4]: no

Compound: CNCCCC12CCC(c3ccccc31)c1ccccc12 [Maprotiline hydrochloride]
- Z Score [5]: −0.3615
- Z score [2]: −0.361
- Activity [8]: no

Compound: CC[C@@H]1Cc2cc(O)ccc2C2=C1c1ccc(O)cc1C[C@H]2CC
- Z Score: −1.053
- Z score [2]: −1.053
- Activity [3]: no

Compound: Nc1nc2ccc(Cl)cc2c2nc(-c3ccco3)nn12 [CGS-15943]
- Z Score: 0.1783
- Z score: 0.178

Compound: Br.CCSC(=N)N [S-Ethylisothiourea hydrobromide]
- Z Score (168 h, 3 µM): −1.599
- Z score (168 h, 3 µM): −1.599
- Activity [4]: no

Compound: CN1CCC(=C2c3ccccc3C=Cc3ccccc32)CC1 [Cyproheptadine hydrochloride]
- Z Score (168 h, 3 µM): 1.232
- Z score (168 h, 3 µM): 1.232
- Activity [4]: no

Compound: CN/C(=N/CCSCc1nc[nH]c1C)NC#N [Cimetidine]
- Z Score (LOPAC library screen at 3 μM, MTT, secondary neurosphere cultures, screened in singlets): 1.665
- Z score [10]: 1.665
- Activity [4]: no

Compound: CCNC(=O)[C@H]1O[C@@H](n2cnc3c(N)ncnc32)[C@H](O)[C@@H]1O [5′-N-Ethylcarboxamidoadenosine]
- Z Score [1]: −2.587
- Z score [2]: −2.587
- Activity [3]: yes

Compound: COc1ccc2c(c1)CC[C@@H]1[C@@H]2CC[C@]2(C)[C@@H](NCCCCCCN3C(=O)C=CC3=O)CC[C@@H]12 [U-73122]
- Activity [7]: no

Compound: Nc1ncnc2c1ncn2C1CCCC1 [9-cyclopentyladenine]
- Z Score (168 h, 3 µM): 0.4988
- Z score (168 h, 3 µM): 0.499
- Activity [4]: no

Compound: C=C(C)[C@@H]1CC=C(C(=O)O)CC1 [(−)-Perilic acid]
- Z score [2]: −1.321
- Activity [6]: no

Compound: COc1ccccc1OCC(O)CN1CCN(CC(=O)Nc2c(C)cccc2C)CC1 (stereo not shown) [Ranolazine dihydrochloride]
- Z Score [1]: −2.104
- Z score [2]: −2.104
- Activity [6]: no

Compound: CCCN(CCc1ccccc1)C1CCc2c(O)cccc2C1.Cl (racemic) [(±)-PPHT hydrochloride]
- Z score [2]: −1.915
- Activity [3]: no

Compound: C[C@]12CC[C@@H](O)C[C@@H]1CC[C@@H]1[C@@H]2CC[C@]2(C)[C@@H](C(=O)CO)CC[C@@H]12
- Z Score: 0.4441
- Z score [2]: 0.444
- Activity [6]: no

Compound: Cc1cn([C@H]2C[C@H](N=[N+]=[N-])[C@@H](CO)O2)c(=O)[nH]c1=O [3′-Azido-3′-deoxythymidine]
- Activity: yes
- Z Score [1]: −5.023
- Z score [2]: −5.023

Compound: C=CCN1CC[C@]23c4c5ccc(O)c4O[C@H]2/C(=N/N=C2\CC[C@@]4(O)[C@H]6Cc7ccc(O)c8c7[C@@]4(CCN6CC=C)[C@H]2O8)CC[C@@]3(O)[C@H]1C5 [Naloxonazine dihydrochloride]
- Z Score: −0.6061
- Z score [2]: −0.606
- Activity [3]: no

Compound: CN(C)c1ccc(O)c2c1C[C@H]1C[C@H]3[C@H](N(C)C)C(O)=C(C(N)=O)C(=O)[C@@]3(O)C(O)=C1C2=O [Minocycline hydrochloride]
- Z Score [9]: 0.4419
- Z score [2]: 0.442

Compound: CCN(CC)CCNC(=O)c1cc(Cl)c(N)cc1OC [Metoclopramide hydrochloride]
- Z Score (168 h, 3 µM): −1.992
- Z score (168 h, 3 µM): −1.992
- Activity [3]: no

Compound: CN1C2CCC1CC(OC(=O)c1cc(Cl)cc(Cl)c1)C2 (stereo not shown) [3-Tropanyl-3,5-dichlorobenzoate]
- Z Score: −9.272
- Z score [2]: −9.272
- Activity [3]: yes

Compound: Dihydroergocristine methanesulfonate
- Z Score: −0.773
- Z score [10]: −0.773
- Activity [4]: no

Compound: CC(N)C(=O)OC(C)(C)Cc1ccc(Cl)cc1 (stereo not shown) [Alaproclate hydrochloride]
- Z Score (168 h, 3 µM): −0.1725
- Z score (168 h, 3 µM): −0.172
- Activity [7]: no

Compound: CC(/C=C/c1cccc(Oc2ccc(F)cc2)c1)N(O)C(N)=O (stereo not shown) [BWB70C]
- Z Score: −0.8932
- Z score [10]: −0.893
- Activity [4]: no

Compound: CCCCCCCCCCCCC/C=C/[C@@H](O)[C@@H](N)CO [Sphingosine]
- Z Score: 1.404
- Z score [2]: 1.404
- Activity [6]: no

Compound: CC[C@@H]1C(=O)OC[C@@H]1Cc1cncn1C [Pilocarpine nitrate]
- Z Score (168 h, 3 µM): −1.213
- Z score (168 h, 3 µM): −1.213
- Activity [8]: no

Compound: Oc1ccc(C=Cc2cc(O)cc(O)c2)cc1 [Resveratrol]
- Z Score [5]: −0.2295
- Z score [2]: −0.230
- Activity [6]: no

Compound: Clc1ccccc1C(c1ccccc1)(c1ccccc1)n1ccnc1 [Clotrimazole]
- Z Score [5]: −0.7158
- Z score [10]: −0.716
- Activity [4]: no

Compound: CN(C)CCC=C1c2ccccc2COc2ccccc21 [Doxepin hydrochloride]
- Z Score (168 h, 3 µM): −1.012
- Z score (168 h, 3 µM): −1.012
- Activity [3]: no

Compound: CN(C(=O)CCCOc1ccc2[nH]c(=O)ccc2c1)C1CCCCC1 [Cilostamide]
- Z Score [9]: 0.1756
- Z score [10]: 0.176
- Activity [4]: no

Compound: FC(F)(F)c1ccccc1-n1ccnc1 [1-[2-(Trifluoromethyl)phenyl]imidazole]
- Z Score (168 h, 3 µM): −0.1576
- Z score (168 h, 3 µM): −0.158
- Activity [6]: no

Compound: Cc1cc(N)c2ccccc2[n+]1CCCCCCCCCC[n+]1c(C)cc(N)c2ccccc21 [Dequalinium (29), Dequalinium, reference compound]
- Z Score [1]: −9.54
- Z score [2]: −9.540
- Activity [3]: yes
